# Measured values reported in PubChem BioAssay (NCI).
#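 These data come from cells grown in 96-well plates and exposed to compound for 48 hours at five concentrations. The concentration for 50% growth inhibition is given as GI50. TGI: concentration producing complete growth inhibition.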
# Tests used:
# Test in all cases: DTP human tumour cell line panel, 48 h
# [1] = test system: 786-0 renal
# [2] = test system: A498 renal
# [3] = test system: A549 NSCLC
# [4] = test system: ACHN renal
# [5] = test system: BT-549 breast
# [6] = test system: CAKI-1 renal
# [7] = test system: CCRF-CEM leukemia
# [8] = test system: COLO 205 colon
# [9] = test system: DU-145 prostate
# [10] = test system: EKVX NSCLC
# [11] = test system: HCC-2998 colon
# [12] = test system: HCT-116 colon
# [13] = test system: HCT-15 colon
# [14] = test system: HL-60(TB) leukemia
# [15] = test system: HOP-62 NSCLC
# [16] = test system: HOP-92 NSCLC
# [17] = test system: HS 578T breast
# [18] = test system: HT29 colon
# [19] = test system: IGROV1 ovarian
# [20] = test system: K-562 leukemia
# [21] = test system: KM12 colon
# [22] = test system: LOX IMVI melanoma
# [23] = test system: M14 melanoma
# [24] = test system: MALME-3M melanoma
# [25] = test system: MCF7 breast
# [26] = test system: MDA-MB-231 breast
# [27] = test system: MDA-MB-435
# [28] = test system: MDA-MB-468 breast
# [29] = test system: MOLT-4 leukemia
# [30] = test system: NCI-H226 lung
# [31] = test system: NCI-H23 lung
# [32] = test system: NCI-H460 lung
# [33] = test system: NCI-H522 lung
# [34] = test system: NCI/ADR-RES ovarian
# [35] = test system: OVCAR-3 ovarian
# [36] = test system: OVCAR-4 ovarian
# [37] = test system: OVCAR-5 ovarian
# [38] = test system: OVCAR-8 ovarian
# [39] = test system: PC-3 prostate
# [40] = test system: RPMI-8226 leukemia
# [41] = test system: RXF 393 renal
# [42] = test system: SF-268 CNS
# [43] = test system: SF-295 CNS
# [44] = test system: SF-539 CNS
# [45] = test system: SK-MEL-2 melanoma
# [46] = test system: SK-MEL-28 melanoma
# [47] = test system: SK-MEL-5 melanoma
# [48] = test system: SK-OV-3 ovarian
# [49] = test system: SN12C renal
# [50] = test system: SNB-19 CNS
# [51] = test system: SNB-75 CNS
# [52] = test system: SR leukemia
# [53] = test system: SW-620 colon
# [54] = test system: T-47D breast
# [55] = test system: TK-10 renal
# [56] = test system: U251 CNS
# [57] = test system: UACC-257 melanoma
# [58] = test system: UACC-62 melanoma
# [59] = test system: UO-31 renal
compound,measurement,setting,value
CC(=O)N1CCN(Cc2ccc3c(NNC(=O)c4cnccn4)nc4cc(F)ccc4n23)CC1,GI50,[1],0.342 µM
same,TGI,[1],6.55 µM
same,GI50,[2],22.7 µM
same,TGI,[2],37.8 µM
same,GI50,[3],0.596 µM
same,TGI,[3],17.5 µM
same,GI50,[4],0.311 µM
same,TGI,[4],12.3 µM
same,GI50,[5],0.995 µM
same,TGI,[5],19.6 µM
same,GI50,[6],0.477 µM
same,TGI,[6],18.8 µM
same,GI50,[7],0.374 µM
same,TGI,[7],10.6 µM
same,GI50,[8],0.436 µM
same,TGI,[8],11.4 µM
same,GI50,[9],0.873 µM
same,TGI,[9],> 100 µM
same,GI50,[10],0.312 µM
same,TGI,[10],10.3 µM
same,GI50,[11],0.96 µM
same,TGI,[11],19 µM
same,GI50,[12],0.309 µM
same,TGI,[12],18.8 µM
same,GI50,[13],0.197 µM
same,TGI,[13],19 µM
same,GI50,[14],0.461 µM
same,TGI,[14],4.54 µM
same,GI50,[15],0.41 µM
same,TGI,[15],23.6 µM
same,GI50,[16],0.331 µM
same,TGI,[16],14.6 µM
same,GI50,[17],13.2 µM
same,TGI,[17],> 100 µM
same,GI50,[18],0.501 µM
same,TGI,[18],21 µM
same,GI50,[19],0.784 µM
same,TGI,[19],> 52.9 µM
same,GI50,[20],0.753 µM
same,TGI,[20],33.5 µM
same,GI50,[21],0.537 µM
same,TGI,[21],> 81.3 µM
same,GI50,[22],0.371 µM
same,TGI,[22],3.09 µM
same,GI50,[23],0.333 µM
same,TGI,[23],2.24 µM
same,GI50,[24],1.22 µM
same,TGI,[24],10.9 µM
same,GI50,[25],0.898 µM
same,TGI,[25],31.2 µM
same,GI50,[26],0.736 µM
same,TGI,[26],25.2 µM
same,GI50,[27],1.51 µM
same,TGI,[27],> 100 µM
same,GI50,[28],0.525 µM
same,TGI,[28],3.39 µM
same,GI50,[29],0.387 µM
same,TGI,[29],15.5 µM
same,GI50,[30],0.742 µM
same,TGI,[30],11.2 µM
same,GI50,[31],0.909 µM
same,TGI,[31],13.2 µM
same,GI50,[32],0.408 µM
same,TGI,[32],> 36 µM
same,GI50,[33],1.26 µM
same,TGI,[33],15.7 µM
same,GI50,[34],1.17 µM
same,TGI,[34],12.3 µM
same,GI50,[35],0.724 µM
same,TGI,[35],30.5 µM
same,GI50,[36],0.64 µM
same,TGI,[36],41.7 µM
same,GI50,[37],1.09 µM
same,TGI,[37],24.4 µM
same,GI50,[38],0.454 µM
same,TGI,[38],> 34.1 µM
same,GI50,[39],0.525 µM
same,TGI,[39],> 52.4 µM
same,GI50,[40],0.823 µM
same,TGI,[40],> 39.7 µM
same,GI50,[41],1.45 µM
same,TGI,[41],12.4 µM
same,GI50,[42],0.609 µM
same,TGI,[42],> 100 µM
same,GI50,[43],0.29 µM
same,TGI,[43],29.9 µM
same,GI50,[44],0.787 µM
same,TGI,[44],6.04 µM
same,GI50,[45],1.28 µM
same,TGI,[45],11.4 µM
same,GI50,[46],0.624 µM
same,TGI,[46],31.6 µM
same,GI50,[47],0.605 µM
same,TGI,[47],4.98 µM
same,GI50,[48],0.492 µM
same,TGI,[48],13.7 µM
same,GI50,[49],0.864 µM
same,TGI,[49],> 100 µM
same,GI50,[50],1.2 µM
same,TGI,[50],> 100 µM
same,GI50,[51],1.39 µM
same,TGI,[51],99.3 µM
same,GI50,[52],0.389 µM
same,TGI,[52],10.7 µM
same,GI50,[53],0.633 µM
same,TGI,[53],> 63 µM
same,GI50,[54],1.7 µM
same,TGI,[54],36.8 µM
same,GI50,[55],0.304 µM
same,TGI,[55],45.7 µM
same,GI50,[56],0.505 µM
same,TGI,[56],48.7 µM
same,GI50,[57],1.68 µM
same,TGI,[57],10.5 µM
same,GI50,[58],0.435 µM
same,TGI,[58],2.21 µM
same,GI50,[59],0.163 µM
same,TGI,[59],7.66 µM
Clc1cccc(N/N=C/c2c[nH]c3ccc(Br)cc23)n1,GI50,[1],6.61 µM
same,TGI,[1],20.3 µM
same,GI50,[2],17 µM
same,TGI,[2],32.2 µM
same,GI50,[3],11.7 µM
same,TGI,[3],26.3 µM
same,GI50,[4],6.73 µM
same,TGI,[4],20.1 µM
same,GI50,[5],0.296 µM
same,TGI,[5],12.3 µM
same,GI50,[6],1.29 µM
same,TGI,[6],12.2 µM
same,GI50,[7],0.231 µM
same,TGI,[7],16 µM
same,GI50,[8],11.8 µM
same,TGI,[8],24.2 µM
same,GI50,[9],8.12 µM
same,TGI,[9],21 µM
same,GI50,[10],1.6 µM
same,TGI,[10],14.6 µM
same,GI50,[11],4.07 µM
same,TGI,[11],14.3 µM
same,GI50,[12],4.36 µM
same,TGI,[12],18 µM
same,GI50,[13],3.87 µM
same,TGI,[13],15.3 µM
same,GI50,[14],2.7 µM
same,TGI,[14],23.9 µM
same,GI50,[15],4.28 µM
same,TGI,[15],18.8 µM
same,GI50,[16],1.55 µM
same,TGI,[16],8.21 µM
same,GI50,[17],2.94 µM
same,TGI,[17],27.1 µM
same,GI50,[18],10.8 µM
same,TGI,[18],24 µM
same,GI50,[19],0.349 µM
same,TGI,[19],2.59 µM
same,GI50,[20],2 µM
same,TGI,[20],29.6 µM
same,GI50,[21],2.69 µM
same,TGI,[21],9.62 µM
same,GI50,[22],1.22 µM
same,TGI,[22],11 µM
same,GI50,[23],4 µM
same,TGI,[23],17.9 µM
same,GI50,[24],11.6 µM
same,TGI,[24],24.5 µM
same,GI50,[25],3.74 µM
same,TGI,[25],17 µM
same,GI50,[26],1.47 µM
same,TGI,[26],8.95 µM
same,GI50,[27],2.6 µM
same,TGI,[27],11.6 µM
same,GI50,[28],4.42 µM
same,TGI,[28],16.6 µM
same,GI50,[29],0.416 µM
same,TGI,[29],11.5 µM
same,GI50,[30],0.416 µM
same,TGI,[30],18 µM
same,GI50,[31],10.2 µM
same,TGI,[31],23.4 µM
same,GI50,[32],3.52 µM
same,TGI,[32],15.2 µM
same,GI50,[33],1.01 µM
same,TGI,[33],11.9 µM
same,GI50,[34],3.08 µM
same,TGI,[34],17.6 µM
same,GI50,[35],2.11 µM
same,TGI,[35],11.1 µM
same,GI50,[36],6.12 µM
same,TGI,[36],23.9 µM
same,GI50,[37],10.2 µM
same,TGI,[37],22.1 µM
same,GI50,[38],5.91 µM
same,TGI,[38],26 µM
same,GI50,[39],1.25 µM
same,TGI,[39],14 µM
same,GI50,[40],2.2 µM
same,TGI,[40],20.4 µM
same,GI50,[41],1.23 µM
same,TGI,[41],8.11 µM
same,GI50,[42],1.85 µM
same,TGI,[42],15.3 µM
same,GI50,[43],7.12 µM
same,TGI,[43],20.4 µM
same,GI50,[44],1.6 µM
same,TGI,[44],15 µM
same,GI50,[45],4.85 µM
same,TGI,[45],19.5 µM
same,GI50,[46],14.2 µM
same,TGI,[46],27.3 µM
same,GI50,[47],10.3 µM
same,TGI,[47],22 µM
same,GI50,[48],2.04 µM
same,TGI,[48],16 µM
same,GI50,[49],0.695 µM
same,TGI,[49],13 µM
same,GI50,[50],10.2 µM
same,TGI,[50],21.8 µM
same,GI50,[53],3.22 µM
same,TGI,[53],15.5 µM
same,GI50,[54],3.38 µM
same,TGI,[54],20.3 µM
same,GI50,[55],14 µM
same,TGI,[55],27.2 µM
same,GI50,[56],8.5 µM
same,TGI,[56],23.6 µM
same,GI50,[57],12 µM
same,TGI,[57],25.2 µM
same,GI50,[58],0.718 µM
same,TGI,[58],18.1 µM
same,GI50,[59],0.391 µM
same,TGI,[59],14.8 µM
